The values that follow come from US20210002231A1 (Centre National de la Recherche Scientifique, priority 2018, published 2021).

The subject of data set [1] is C57BL/6N mice. Put plainly: Naltrexone-precipitated withdrawal syndrome. Type of data set: in vivo. The following applies: twice daily sc. for 7 days, KGFF09 7.4 μmol/kg; in comparison to the other compounds. How it is done: On day 7, two hours after the last drug injection, the withdrawal syndrome was precipitated by administration of naltrexone (5 mg/kg, sc.) and evaluated over 30 min. Jumping, paw tremors and wet dog shakes were recorded as number of events occurring during the total test time. Diarrhea was checked for 30 min with one point given for any signs of it during each 5 min period (maximum score: 6). Body weight was measured immediately before and after each 30 min test session, and percentage of body weight lost during the test was calculated. For each mouse, a global opiate withdrawal score was also calculated by summing the values obtained for each sign. For this purpose one point was assigned to every 3 jumps and 5 paw tremors, respectively, whereas all other signs were given the absolute values recorded during the test.

Data set [2] concerns the target NPFF2R (Homo sapiens, UniProt Q9Y5X5). Nature of the data set: Radioligand competition binding with [125I]-1-DMe-NPFF. More on the design: expressed in transfected cells; HEK293-Glo20F cells (cAMP). On the technique in general: Loss of bound radioactivity is the signal in a displacement assay; it reports binding, not function.

NPFF2R, sequence (Q9Y5X5 whole entry): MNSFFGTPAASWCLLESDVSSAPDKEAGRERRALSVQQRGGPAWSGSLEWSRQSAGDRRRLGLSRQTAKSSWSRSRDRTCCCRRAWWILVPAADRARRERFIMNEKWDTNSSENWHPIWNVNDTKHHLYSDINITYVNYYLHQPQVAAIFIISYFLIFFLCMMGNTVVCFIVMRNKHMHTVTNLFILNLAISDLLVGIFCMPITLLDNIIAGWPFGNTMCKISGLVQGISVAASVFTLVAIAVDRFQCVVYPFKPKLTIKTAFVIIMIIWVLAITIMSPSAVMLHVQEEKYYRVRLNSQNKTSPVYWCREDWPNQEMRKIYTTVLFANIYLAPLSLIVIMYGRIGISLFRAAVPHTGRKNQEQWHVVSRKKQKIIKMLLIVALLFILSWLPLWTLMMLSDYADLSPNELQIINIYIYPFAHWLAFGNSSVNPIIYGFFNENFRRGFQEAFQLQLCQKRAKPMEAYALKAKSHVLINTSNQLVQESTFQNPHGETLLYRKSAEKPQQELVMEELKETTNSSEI

With `Cc1cc(O)cc(C)c1C[C@H](N)C(=O)N[C@H](CCCNC(=N)N)C(=O)N[C@H]1Cc2ccccc2CN(CCC(=O)N[C@@H](CCCN2CCC(Cc3ccccc3)CC2)C(=O)N[C@@H](Cc2ccccc2)C(N)=O)C1=O` [KGFF09, H-Dmt-D-Arg-Aba-β-Ala-Bpa-Phe-NH2], the “global opiate withdrawal score, reduced to” value in data set [1] is “circa 50%”.
Take `Cc1cc(O)cc(C)c1C[C@H](N)C(=O)N[C@H](CCCNC(=N)N)C(=O)N[C@H]1Cc2ccccc2CN(CCC(N)=O)C1=O` [KGOP01, reference compound]: the inhibition constant (Ki) (as a rule, a dissociation constant, usually derived from enzyme kinetics or from competition with a known ligand) in data set [2] was 4.5 µM.
